Measured values published in US10081634B2, “Heterocyclic compound” (Daewoong Pharmaceutical Co., Ltd., priority 2014, dated 2018).
Where two headings read alike, the source gives them in different places.

Tests used:
[1] = biological target: T1, PRS (prolyl-tRNA synthetase) (Homo sapiens, UniProt P07814); test: In vitro PRS enzyme activity inhibition experiment ([3H]proline, liquid scintillation); assay type: biochemical
T1 construct: the portion corresponding to PRS in cDNA of EPRS was subcloned; made in house
T1 sequence (P07814 1007-1512 limits assumed): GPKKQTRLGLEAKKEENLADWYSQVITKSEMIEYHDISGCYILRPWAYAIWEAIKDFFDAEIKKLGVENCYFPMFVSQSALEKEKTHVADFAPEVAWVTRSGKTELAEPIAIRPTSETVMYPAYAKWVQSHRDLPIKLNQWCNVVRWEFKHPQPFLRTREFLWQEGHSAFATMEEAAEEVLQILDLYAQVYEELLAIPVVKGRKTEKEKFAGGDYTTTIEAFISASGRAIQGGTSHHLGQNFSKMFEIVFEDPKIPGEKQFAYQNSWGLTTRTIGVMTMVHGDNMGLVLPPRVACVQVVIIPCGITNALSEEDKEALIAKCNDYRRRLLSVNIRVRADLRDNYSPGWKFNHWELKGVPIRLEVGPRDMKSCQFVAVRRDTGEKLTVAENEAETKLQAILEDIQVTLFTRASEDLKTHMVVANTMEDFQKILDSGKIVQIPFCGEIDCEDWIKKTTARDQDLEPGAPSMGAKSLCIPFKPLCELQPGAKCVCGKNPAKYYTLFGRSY
Experimental: In order to confirm the biological activities of the compounds prepared in Examples, % inhibition or IC50 values of PRS enzyme ([…]) activities were calculated.
Specifically, the portion corresponding to PRS in cDNA of EPRS was subcloned, and the obtained high-purity PRS protein was purified and used in the experiment. The compounds (1 μM) prepared in Examples were added into the reaction buffer (20 mM KPO4 (pH 7.4), 6 mM MgAc, 5 mM ATP, […] tRNA, 0.5 mM DTT, 20 mCi[^3H]proline (1 mCi/mL)) and allowed to react at 37° C. for 5 to 10 minutes. The reaction was terminated with 3M paper that was previously dried by addition of 5% TCA. The radioactivity was measured using a liquid scintillation counter.
IC50 values of the respective compounds were calculated and analyzed using Microsoft Excel or Sigma Plot 8.0. In Table 1, the results are divided into A, B and C according to the range of IC50. The case where the derived IC50 is 100 nM or less is represented by “A”, the case where the IC50 is 100 to 500 nM is represented by “B”, and the case where the IC50 is 500 nM or higher is represented by “C”.

NCI-H460 cells = test: Cancer cell growth inhibition experiment (MTT assay); assay type: cell-based; settings: Homo sapiens; NCI-H460 lung cancer cell line; 48 hours treatment; MTT cell viability
Experimental: NCI-H460 cells, lung cancer cell lines, were cultured in 5% CO2, 37° C. incubator using a flask for 75 cm^2 tissue culture. 96-well plates were used for the evaluation. These were prepared by differently applying at concentrations in the range of 6,000 to 12,000 cells/well according to the growth rate of the cell lines. The medium containing 5% FBS were dispensed in 200 μL/well and used. The medium were cultured for 24 hours. After confirming the cell status and dispensing form of a 96-well plate under a microscope, they were used for subsequent experiments. The compounds were evaluated at concentrations of 100, 30, 10, 3, 1, 0.3, 0.03, 0.01 μM. After removing the existing medium, the compounds with various concentrations were treated in an amount of 200 μL/well. The compounds-treated plates were further cultured for 48 hours, and the cell viabilities were measured by MTT assay to calculate IC50 values.
% Inhibition and IC50 values of the respective compounds were calculated and analyzed using Sigma Plot 8.0. The case where the derived IC50 is 5 μM or less is represented by “A”, the case where the IC50 is 5 to 30 μM is represented by “B”, and the case where the IC50 is 30 μM or higher is represented by “C”.

[2] = purified PRS protein subcloned from EPRS cDNA, 37° C., 5 to 10 minutes, read-out: PRS IC50

SMILES	IC50 [1, 2] [µM]	IC50 (NCI-H460 cells) [µM]	IC50 [1] [µM]
O=C(C[C@H]1NCCC[C@@H]1O)Cn1c(CO)nc2ccccc21 [Example 56, 1-(2-(hydroxymethyl)-1H-benzo[d]imidazol-1-yl)-3-((2R,3S)-3-hydroxypiperidin-2-yl)propan-2-one]	< 0.1	≥ 30	
Cc1ccc2c(ncn2CC(=O)C[C@H]2NCCC[C@@H]2O)c1Br [Example 19, 1-(4-bromo-5-methyl-1H-benzo[d]imidazol-1-yl)-3-((2R,3S)-3-hydroxypiperidin-2-yl)propan-2-one]	< 0.1	5 to 30	
O=C(C[C@H]1NCCC[C@@H]1O)Cn1cnc2cc(Cl)c(Cl)cc21 [Example 25, 1-(5,6-dichloro-1H-benzo[d]imidazol-1-yl)-3-((2R,3S)-3-hydroxypiperidin-2-yl)propan-2-one]	< 0.1	≤ 5	
O=C(C[C@H]1NCCC[C@@H]1O)Cn1cnc2ccccc21 [Example 1, 1-(1H-benzo[d]imidazol-1-yl)-3-((2R,3S)-3-hydroxypiperidin-2-yl)propan-2-one]	> 0.5	≥ 30	
Cc1ccc2c(ncn2CC(=O)C[C@H]2NCCC[C@@H]2O)c1C [Example 16, 1-(4,5-dimethyl-1H-benzo[d]imidazol-1-yl)-3-((2R,3S)-3-hydroxypiperidin-2-yl)propan-2-one]	< 0.1	5 to 30	
O=C(C[C@H]1NCCC[C@@H]1O)Cn1cnc2cnc(Cl)cc21 [Example 32, 1-(6-chloro-1H-imidazo[4,5-c]pyridin-1-yl)-3-((2R,3S)-3-hydroxypiperidin-2-yl)propan-2-one]	0.1 to 0.5	≥ 30	
O=C(C[C@H]1NCCC[C@@H]1O)Cn1cnc2cncc(Br)c21 [Example 33, 1-(7-bromo-1H-imidazo[4,5-c]pyridin-1-yl)-3-((2R,3S)-3-hydroxypiperidin-2-yl)propan-2-one]	< 0.1	5 to 30	
N#Cc1cnc2c(c1)ncn2CC(=O)C[C@H]1NCCC[C@@H]1O [Example 38, 3-(3-((2R,3S)-3-hydroxypiperidin-2-yl)-2-oxopropyl)-3H-imidazo[4,5-b]pyridine-6-carbonitrile]	0.1 to 0.5	≥ 30	
O=C(C[C@H]1NCCC[C@@H]1O)Cn1cnc2cccc(C(F)(F)F)c21 [Example 8, 1-((2R,3S)-3-hydroxypiperidin-2-yl)-3-(7-(trifluoromethyl)-1H-benzo[d]imidazol-1-yl)propan-2-one]	< 0.1	5 to 30	
O=C(C[C@H]1NCCC[C@@H]1O)Cn1c(CO)nc2ccc(Br)cc21 [Example 58, 1-(6-bromo-2-(hydroxymethyl)-1H-benzo[d]imidazol-1-yl)-3-((2R,3S)-3-hydroxypiperidin-2-yl)propan-2-one]	< 0.1	5 to 30	
Cc1c(Br)cnc2c1ncn2CC(=O)C[C@H]1NCCC[C@@H]1O [Example 40, 1-(6-bromo-7-methyl-3H-imidazo[4,5-b]pyridin-3-yl)-3-((2R,3S)-3-hydroxypiperidin-2-yl)propan-2-one]	< 0.1	≤ 5	
O=C(C[C@H]1NCCC[C@@H]1O)Cn1cnc2c(Cl)c(Cl)ccc21 [Example 12, 1-(4,5-dichloro-1H-benzo[d]imidazol-1-yl)-3-((2R,3S)-3-hydroxypiperidin-2-yl)propan-2-one]	< 0.1	≤ 5	
O=C(C[C@H]1NCCC[C@@H]1O)Cn1cnc2cc(C(F)(F)F)ccc21 [Example 6, 1-((2R,3S)-3-hydroxypiperidin-2-yl)-3-(5-(trifluoromethyl)-1H-benzo[d]imidazol-1-yl)propan-2-one]	0.1 to 0.5	≥ 30	
Cc1c(Cl)ccc2c1ncn2CC(=O)C[C@H]1NCCC[C@@H]1O [Example 14, 1-(5-chloro-4-methyl-1H-benzo[d]imidazol-1-yl)-3-((2R,3S)-3-hydroxypiperidin-2-yl)propan-2-one]	< 0.1	≤ 5	
Cc1cc2ncn(CC(=O)C[C@H]3NCCC[C@@H]3O)c2cc1C [Example 9, 1-(5,6-dimethyl-1H-benzo[d]imidazol-1-yl)-3-((2R,3S)-3-hydroxypiperidin-2-yl)propan-2-one]	< 0.1	≥ 30	
O=C(C[C@H]1NCCC[C@@H]1O)Cn1cnc2cc(Br)cnc21 [Example 37, 1-(6-bromo-3H-imidazo[4,5-b]pyridin-3-yl)-3-((2R,3S)-3-hydroxypiperidin-2-yl)propan-2-one]	< 0.1	≤ 5	
Cc1c(C#N)cnc2c1ccn2CC(=O)C[C@H]1NCCC[C@@H]1O [Example 95, 1-(3-((2R,3S)-3-hydroxypiperidin-2-yl)-2-oxopropyl)-4-methyl-1H-pyrrolo[2,3-b]pyridin-5-carbonitrile]		≥ 30	> 0.5
Cc1c(Br)ccc2c1ncn2CC(=O)C[C@H]1NCCC[C@@H]1O [Example 15, 1-(5-bromo-4-methyl-1H-benzo[d]imidazol-1-yl)-3-((2R,3S)-3-hydroxypiperidin-2-yl)propan-2-one]	< 0.1	≤ 5	

Continued, in another order:

IC50 [1, 2] [µM]	IC50 (NCI-H460 cells) [µM]	SMILES	IC50 [1] [µM]
> 0.5	≥ 30	O=C(C[C@H]1NCCC[C@@H]1O)Cn1ccc2ncc(Br)cc21 [Example 94, 1-(6-bromo-1H-pyrrolo[3,2-b]pyridin-1-yl)-3-((2R,3S)-3-hydroxypiperidin-2-yl)propan-2-one]	
> 0.5	≥ 30	CC(O)(C[C@H]1NCCC[C@@H]1O)Cn1cnc2cc(Cl)c(Cl)cc21 (stereo partly drawn) [Example 84, (2R,3S)-2-(3-(5,6-dichloro-1H-benzo[d]imidazol-1-yl)-2-hydroxy-2-methylpropyl)piperidin-3-ol]	
< 0.1	≤ 5	O=C(C[C@H]1NCCC[C@@H]1O)Cn1c(CO)nc2cc(Cl)c(Cl)cc21 [Example 87, 1-(5,6-dichloro-2-(hydroxymethyl)-1H-benzo[d]imidazol-1-yl)-3-((2R,3S)-3-hydroxypiperidin-2-yl)propan-2-one]	
> 0.5	≥ 30	CC(O)(C[C@H]1NCCC[C@@H]1O)Cn1cnc2ccccc21 (stereo partly drawn) [Example 80, (2R,3S)-2-(3-(1H-benzo[d]imidazol-1-yl)-2-hydroxy-2-methylpropyl)piperidin-3-ol]	
> 0.5	≥ 30	O=C(C[C@H]1NCCC[C@@H]1O)Cn1ccc2ccc(Br)nc21 [Example 92, 1-(6-bromo-1H-pyrrolo[2,3-b]pyridin-1-yl)-3-((2R,3S)-3-hydroxypiperidin-2-yl)propan-2-one]	
< 0.1	5 to 30	O=C(C[C@H]1NCCC[C@@H]1O)Cn1c(CO)nc2ccc(C(F)(F)F)cc21 [Example 59, 1-(2-(hydroxymethyl)-6-(trifluoromethyl)-1H-benzo[d]imidazol-1-yl)-3-((2R,3S)-3-hydroxypiperidin-2-yl)propan-2-one]	
> 0.5	≥ 30	COC(C[C@H]1NCCC[C@@H]1O)Cn1cnc2cc(Cl)c(Cl)cc21 (stereo partly drawn) [Example 83, (2R,3S)-2-(3-(5,6-dichloro-1H-benzo[d]imidazol-1-yl)-2-methoxypropyl)piperidin-3-ol]	
< 0.1	≥ 30	Cc1c(Br)ccc2c1ncn2CC(O)C[C@H]1NCCC[C@@H]1O (stereo partly drawn) [Example 89, (2R,3S)-2-(3-(5-bromo-4-methyl-1H-benzo[d]imidazol-1-yl)-2-hydroxypropyl)piperidin-3-ol]	
